Laboratory results from patent publication EP0978280A1, “2-[…]” (priority 1997, dated 1998).
Where a name gives a salt, the structure may show the parent alone.

Target: T1, Nicotinic acetylcholine receptor (Rattus norvegicus, UniProt P09483+P12390)
T1 construct: the rat was decapitated, and the whole brain was removed and homogenized; from tissue; host or cells: rat whole brain membrane fraction
Conditions: 10 nM of the test drug; 1 nM of ^3H-cytidine; rat whole brain membrane fraction; 4°C for 75 min; nonspecific binding with 10 µM (-)nicotine
Description: Nicotinic acetylcholine receptor binding assay
The membrane fraction was prepared in accordance with the protocol described in Brain Res., 100, 81-87 (1977). Thus, the rat was decapitated, and the whole brain was removed and homogenized with 15 volumes of cold 0.32 M aqueous sucrose solution using a Teflon homogenizer. The homogenate was centrifuged at 4°C and 1,000 x g for 10 mm. and the supernatant obtained was centrifuged at 4°C and 20,000 x g for 20 min. Then, ice-cold distilled water was added to the pellet, and the pellet was suspended using Hiscotron®. The suspension was centrifuged at 4°C and 8,000 x g for 20 min. and the supernatant and the buffy coat layer were recovered and centrifuged again at 4°C and 40,000 x g for 20 min. The pellet obtained was suspended in cold distilled water and stored at -80°C until used.
The receptor binding experiment was performed in accordance with the protocol described in J. Pharamcol. Exp. Ther., 270, 310-318 (1994). Thus, the rat whole brain membrane fraction (ca 200 µg) was incubated in BSS-Tris buffer [composition mM: NaCl 120, KCl 5, CaCl22, MgCl22, Tris-HCl 50 (pH=7.4, at 4°C)] containing 1 nM of ^3H-cytidine and 10 nM of the test drug at 4°C for 75 min. To stop the reaction, 4 ml of cold BSS-Tris buffer was added and the reaction mixture was immediately suction-filtered on GF/B glass fiber filter paper which had been pre-soaked in 0.5% polyethyleneimine. The filter paper was recovered, 4 ml of ACS-II (Amersham, TM) was added, and the ^3H radioactivity was determined with a scintillation counter. Based on the value (specific binding) obtained after subtraction of the ^3H-binding (nonspecific binding) amount in the presence of 10 µM (-)nicotine, the inhibition rate of ^3H-cytidine binding at the 10 nM concentration of each drug was calculated.

T1 sequence (P09483 31-630): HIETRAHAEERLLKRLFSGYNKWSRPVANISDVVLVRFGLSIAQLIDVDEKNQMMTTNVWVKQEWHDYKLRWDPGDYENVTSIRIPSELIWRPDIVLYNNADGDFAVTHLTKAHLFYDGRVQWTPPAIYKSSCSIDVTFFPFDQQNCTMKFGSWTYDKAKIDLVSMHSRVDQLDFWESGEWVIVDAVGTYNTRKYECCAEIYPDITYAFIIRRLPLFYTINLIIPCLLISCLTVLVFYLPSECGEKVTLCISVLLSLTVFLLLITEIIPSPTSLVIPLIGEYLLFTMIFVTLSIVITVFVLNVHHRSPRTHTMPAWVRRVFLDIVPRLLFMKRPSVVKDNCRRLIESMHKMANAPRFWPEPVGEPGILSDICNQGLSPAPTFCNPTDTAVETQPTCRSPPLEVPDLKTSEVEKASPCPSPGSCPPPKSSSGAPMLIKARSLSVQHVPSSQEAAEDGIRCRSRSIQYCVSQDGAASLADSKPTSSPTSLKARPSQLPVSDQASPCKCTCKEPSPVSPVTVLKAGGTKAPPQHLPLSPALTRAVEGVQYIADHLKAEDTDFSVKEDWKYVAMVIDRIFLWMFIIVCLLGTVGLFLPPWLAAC
T1 sequence (P12390 25-500): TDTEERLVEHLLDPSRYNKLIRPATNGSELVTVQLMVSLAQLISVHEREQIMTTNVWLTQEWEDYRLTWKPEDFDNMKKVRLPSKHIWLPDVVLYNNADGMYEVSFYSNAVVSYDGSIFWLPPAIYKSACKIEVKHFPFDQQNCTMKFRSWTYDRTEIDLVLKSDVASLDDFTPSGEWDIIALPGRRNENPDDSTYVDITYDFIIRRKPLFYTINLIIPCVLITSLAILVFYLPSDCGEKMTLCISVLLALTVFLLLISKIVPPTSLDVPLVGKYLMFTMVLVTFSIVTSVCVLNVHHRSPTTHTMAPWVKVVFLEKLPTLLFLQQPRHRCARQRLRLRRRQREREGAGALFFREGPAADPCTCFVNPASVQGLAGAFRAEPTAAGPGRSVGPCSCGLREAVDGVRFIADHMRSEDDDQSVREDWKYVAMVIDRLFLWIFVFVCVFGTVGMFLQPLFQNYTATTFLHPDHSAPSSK

SMILES: c1cncc(C2CC3CCC2NC3)c1 (stereo not drawn) [Example 1, Syn-6-(3-pyridyl)-2-azabicyclo[2. 2. 2]octane oxalate]
- Inhibition of ^3H-Cytidine binding: 94%

SMILES: c1ncc(C2CC3CCC2NC3)cn1 (stereo not drawn) [Example 16, Syn-6-(5-pyrimidinyl)-2-azabicyclo[2. 2. 2]octane]
- Inhibition of ^3H-Cytidine binding: 93%

SMILES: Cc1cc(C2CC3CCC2NC3)on1 (stereo not drawn) [Example 18, Syn-6-(3-methyl-5-isoxazolyl)-2-azabicyclo[2. 2. 2]octane]
- Inhibition of ^3H-Cytidine binding: 84%

SMILES: C1=C(c2cnccn2)C2CCC1CN2 (stereo not drawn) [Example 23, 6-(2-Pyrazinyl)-2-azabicyclo[2. 2. 2]oct-5-ene]
- Inhibition of ^3H-Cytidine binding: 39%

SMILES: Brc1cncc(C2=CC3CCC2CN3)c1 (stereo not drawn) [Example 24, 5-(5-Bromo-3-pyridyl)-2-azabicyclo[2. 2. 2]oct-5-ene]
- Inhibition of ^3H-Cytidine binding: 92%

SMILES: C#Cc1cncc(C2CC3CCC2NC3)c1 (stereo not drawn) [Example 28, Syn-6-(5-ethynyl-3-pyridyl)-2-azabicyclo[2. 2. 2]octane]
- Inhibition of ^3H-Cytidine binding: 91%

SMILES: c1ccc(-c2cncc(C3CC4CCC3NC4)c2)cc1 (stereo not drawn) [Example 29, Syn-6-(5-phenyl-3-pyridyl)-2-azabicyclo[2. 2. 2]octane]
- Inhibition of ^3H-Cytidine binding: 86%

SMILES: c1cncc(C2CC3CC2CN3)c1 (stereo not drawn) [Example 30, Syn-5-(3-pyridyl)-2-azabicyclo[2. 2. 1]heptane]
- Inhibition of ^3H-Cytidine binding: 87%

SMILES: c1cncc(C2CC3CCCC2NC3)c1 (stereo not drawn) [Example 31, Syn-8-(3-pyridyl)-7-azabicyclo[3. 2. 2.]nonane]
- Inhibition of ^3H-Cytidine binding: 84%
